Experimental data: article PMC8019204 (Cancer Science, 2021)
Where two headings read alike, the source gives them in different places.

Assays:
GEOMETRY mono-1: safety = type: in vivo, human; conditions: for Treatment‐related AE (investigations): ALT increased / Treatment‐related AE (investigations): AST increased / Treatment‐related AE (investigations): Amylase increased / Treatment‐related AE (investigations): Blood ALP increased / Treatment‐related AE (investigations): Blood creatinine increased / Treatment‐related AE (investigations): Lipase increased / Treatment‐related AE (investigations): Neutrophil count decreased / Treatment‐related AE (investigations): Platelet count decreased / Treatment‐related AE (investigations): WBC count decreased / Treatment‐related AE (investigations): γGT increased / Treatment‐related AE: Anaemia / Treatment‐related AE: Cellulitis / Treatment‐related AE: Constipation / Treatment‐related AE: Decreased appetite / Treatment‐related AE: Diarrhoea / Treatment‐related AE: Dry skin / Treatment‐related AE: Fatigue / Treatment‐related AE: Headache / Treatment‐related AE: Hypoalbuminaemia / Treatment‐related AE: Malaise / Treatment‐related AE: Nausea / Treatment‐related AE: Oedema peripheral / Treatment‐related AE: Pyrexia / Treatment‐related AE: Rash / Treatment‐related AE: Vomiting / Any treatment‐related AE: n = 45; for Any treatment‐related AE: Table 5
MET‐amplified NSCLC = conditions: global population, cited from earlier work
[1] = GEOMETRY mono-1: plasma pharmacokinetics of capmatinib; type: in vivo, human; conditions: for AUC(0-t): AUC0–12, geometric mean (CV%)

Compound: CNC(=O)c1ccc(-c2cnc3ncc(Cc4ccc5ncccc5c4)n3n2)cc1F [capmatinib, Capmatinib]
- Treatment‐related AE (investigations): ALT increased (GEOMETRY mono-1: safety; any grade): 6 (13.3) n (%) of patients
- Treatment‐related AE (investigations): AST increased (GEOMETRY mono-1: safety; any grade): 6 (13.3) n (%) of patients
- Treatment‐related AE (investigations): Amylase increased (GEOMETRY mono-1: safety; any grade): 8 (17.8) n (%) of patients
- Treatment‐related AE (investigations): Blood ALP increased (GEOMETRY mono-1: safety; any grade): 4 (8.9) n (%) of patients
- Treatment‐related AE (investigations): Blood creatinine increased (GEOMETRY mono-1: safety; any grade): 24 (53.3) n (%) of patients
- Treatment‐related AE (investigations): Lipase increased (GEOMETRY mono-1: safety; any grade): 6 (13.3) n (%) of patients
- Treatment‐related AE (investigations): Neutrophil count decreased (GEOMETRY mono-1: safety; any grade): 5 (11.1) n (%) of patients
- Treatment‐related AE (investigations): Platelet count decreased (GEOMETRY mono-1: safety; any grade): 8 (17.8) n (%) of patients
- Treatment‐related AE (investigations): WBC count decreased (GEOMETRY mono-1: safety; any grade): 4 (8.9) n (%) of patients
- Treatment‐related AE (investigations): γGT increased (GEOMETRY mono-1: safety; any grade): 3 (6.7) n (%) of patients
- Treatment‐related AE: Anaemia (GEOMETRY mono-1: safety; any grade): 3 (6.7) n (%) of patients
- Treatment‐related AE: Cellulitis (GEOMETRY mono-1: safety; any grade): 3 (6.7) n (%) of patients
- Treatment‐related AE: Constipation (GEOMETRY mono-1: safety; any grade): 5 (11.1) n (%) of patients
- Treatment‐related AE: Decreased appetite (GEOMETRY mono-1: safety; any grade): 10 (22.2) n (%) of patients
- Treatment‐related AE: Diarrhoea (GEOMETRY mono-1: safety; any grade): 8 (17.8) n (%) of patients
- Treatment‐related AE: Dry skin (GEOMETRY mono-1: safety; any grade): 4 (8.9) n (%) of patients
- Treatment‐related AE: Fatigue (GEOMETRY mono-1: safety; any grade): 4 (8.9) n (%) of patients
- Treatment‐related AE: Headache (GEOMETRY mono-1: safety; any grade): 3 (6.7) n (%) of patients
- Treatment‐related AE: Hypoalbuminaemia (GEOMETRY mono-1: safety; any grade): 4 (8.9) n (%) of patients
- Treatment‐related AE: Malaise (GEOMETRY mono-1: safety; any grade): 3 (6.7) n (%) of patients
- Treatment‐related AE: Nausea (GEOMETRY mono-1: safety; any grade): 16 (35.6) n (%) of patients
- Treatment‐related AE: Oedema peripheral (GEOMETRY mono-1: safety; any grade): 14 (31.1) n (%) of patients
- Treatment‐related AE: Pyrexia (GEOMETRY mono-1: safety; any grade): 7 (15.6) n (%) of patients
- Treatment‐related AE: Rash (GEOMETRY mono-1: safety; any grade): 5 (11.1) n (%) of patients
- Treatment‐related AE: Vomiting (GEOMETRY mono-1: safety; any grade): 12 (26.7) n (%) of patients
- Any treatment‐related AE (GEOMETRY mono-1: safety; any grade): 44 (97.8) n (%) of patients
- Treatment‐related AE (investigations): ALT increased (GEOMETRY mono-1: safety; grade 3/4): 2 (4.4) n (%) of patients
- Treatment‐related AE (investigations): AST increased (GEOMETRY mono-1: safety; grade 3/4): 2 (4.4) n (%) of patients
- Treatment‐related AE (investigations): Amylase increased (GEOMETRY mono-1: safety; grade 3/4): 2 (4.4) n (%) of patients
- Treatment‐related AE (investigations): Blood ALP increased (GEOMETRY mono-1: safety; grade 3/4): 0 n (%) of patients
- Treatment‐related AE (investigations): Blood creatinine increased (GEOMETRY mono-1: safety; grade 3/4): 0 n (%) of patients
- Treatment‐related AE (investigations): Lipase increased (GEOMETRY mono-1: safety; grade 3/4): 3 (6.7) n (%) of patients
- Treatment‐related AE (investigations): Neutrophil count decreased (GEOMETRY mono-1: safety; grade 3/4): 3 (6.7) n (%) of patients
- Treatment‐related AE (investigations): Platelet count decreased (GEOMETRY mono-1: safety; grade 3/4): 2 (4.4) n (%) of patients
- Treatment‐related AE (investigations): WBC count decreased (GEOMETRY mono-1: safety; grade 3/4): 1 (2.2) n (%) of patients
- Treatment‐related AE (investigations): γGT increased (GEOMETRY mono-1: safety; grade 3/4): 1 (2.2) n (%) of patients
- Treatment‐related AE: Anaemia (GEOMETRY mono-1: safety; grade 3/4): 1 (2.2) n (%) of patients
- Treatment‐related AE: Cellulitis (GEOMETRY mono-1: safety; grade 3/4): 1 (2.2) n (%) of patients
- Treatment‐related AE: Constipation (GEOMETRY mono-1: safety; grade 3/4): 1 (2.2) n (%) of patients
- Treatment‐related AE: Decreased appetite (GEOMETRY mono-1: safety; grade 3/4): 2 (4.4) n (%) of patients
- Treatment‐related AE: Diarrhoea (GEOMETRY mono-1: safety; grade 3/4): 1 (2.2) n (%) of patients
- Treatment‐related AE: Dry skin (GEOMETRY mono-1: safety; grade 3/4): 0 n (%) of patients
- Treatment‐related AE: Fatigue (GEOMETRY mono-1: safety; grade 3/4): 0 n (%) of patients
- Treatment‐related AE: Headache (GEOMETRY mono-1: safety; grade 3/4): 0 n (%) of patients
- Treatment‐related AE: Hypoalbuminaemia (GEOMETRY mono-1: safety; grade 3/4): 0 n (%) of patients
- Treatment‐related AE: Malaise (GEOMETRY mono-1: safety; grade 3/4): 1 (2.2) n (%) of patients
- Treatment‐related AE: Nausea (GEOMETRY mono-1: safety; grade 3/4): 0 n (%) of patients
- Treatment‐related AE: Oedema peripheral (GEOMETRY mono-1: safety; grade 3/4): 3 (6.7) n (%) of patients
- Treatment‐related AE: Pyrexia (GEOMETRY mono-1: safety; grade 3/4): 0 n (%) of patients
- Treatment‐related AE: Rash (GEOMETRY mono-1: safety; grade 3/4): 0 n (%) of patients
- Treatment‐related AE: Vomiting (GEOMETRY mono-1: safety; grade 3/4): 1 (2.2) n (%) of patients
- Any treatment‐related AE (GEOMETRY mono-1: safety; grade 3/4): 25 (55.6) n (%) of patients
- Patients who experienced at least one AE (GEOMETRY mono-1: safety; of 45 patients, cutoff September 18, 2019): 45 patients
- Discontinuation from treatment phase, reason: Adverse event (GEOMETRY mono-1: safety; overall Japanese cohort (n = 45), cutoff April 15, 2019): 8 (17.8) n (%) of patients
- Median DOR (MET‐amplified NSCLC; GCN ≥10, first‐line): 7.5 months
- Median DOR (MET‐amplified NSCLC; GCN ≥10, second/third‐line): 8.3 months
- Accumulation of exposure ([1]; 400 mg twice daily, Japanese patients): 1.41 fold
- Accumulation of exposure ([1]; 400 mg twice daily, overall study result): 1.39 fold
- Racc AUC0–12 (accumulation ratio), geometric mean (CV%) ([1]; cycle 1, day 15 (steady state), 400 mg twice daily, fasting, Japanese patients): 1.41
- Time at which maximum concentration was reached after administration ([1]; day 15, 400 mg twice daily, Japanese patients): ≤ 1 h
- half-life ([1]; human, plasma, oral, 400 mg): 6.54 h
- AUC(0-t) ([1]; human, plasma, oral, 400 mg, cycle 1, day 1, 400 mg twice daily, fasting, Japanese patients): 18200 ng·h/mL
- AUC(0-t) ([1]; human, plasma, oral, 400 mg, cycle 1, day 15 (steady state), 400 mg twice daily, fasting, Japanese patients): 27000 ng·h/mL
- Cmax ([1]; human, plasma, oral, 400 mg, Cmax, geometric mean (CV%), cycle 1, day 15 (steady state), 400 mg twice daily, fasting, Japanese patients): 5920 ng/mL
